Patent US20140357512A1, “HISTONE DEACETYLASE (HDAC) BIOMARKERS IN MULTIPLE MYELOMA” (priority 2013, published 2014)

Tested on: human myeloma cell line MM.1S
Assay: SILAC acetylated-lysine peptide profiling, HDAC inhibitor vs DMSO (light/heavy ratio)
Type: cell-based
Source text: An embodiment of the invention comprises utilizing the SILAC method in order to quantitate changes in protein expression between two or more populations of cells. The SILAC method is a technique based on mass spectrometry that detects differences in protein abundance among samples using non-radioactive isotopic labeling. The SILAC method is known in the art, and described in detail in Ong et al., “Stable Isotope Labeling by Amino Acids in Cell Culture, SILAC, as a Simple and Accurate Approach to Expression Proteomics”, Molecular & Cellular Proteomics, vol. 1, pp. 376-386 (2002), which is incorporated herein by reference in its entirety.
Briefly, the SILAC method involves growing two populations of cells in cell culture. The first population of cells is grown in growth media containing normal amino acids (“normal media”). The second population of cells is grown in media lacking a standard essential amino acid (such as lysine), but is then supplemented with a non-radioactive, isotopically labeled form of that essential amino acid (such as lysine labeled with ^13C atoms, rather than normal ^12C atoms), which is called “heavy media”. When the two populations of cells are each growing in the medium, they incorporate the amino acids into all of their proteins. The growth of cells maintained in the heavy media is no different from that in normal media. All peptides containing the heavy amino acids are heavier than their normal counterparts. The cells from each of the two populations of cells are lysed. The lysates from each of the two cell populations are then combined. The combined cell lysates are then analyzed by mass spectrometry. Pairs of chemically identical peptides of different stable isotope composition can be differentiated in a mass spectrometer due to their difference in mass. The ratio of peak intensities in the mass spectrum for such peptide pairs reflects the abundance ratio for the two proteins.
This example describes SILAC studies that were performed to compare the effects of three different HDAC inhibitors (Compound A, Compound B, and tubastatin A) to a control on a human multiple myeloma cell line. The HDAC inhibitors were also compared amongst themselves to determine differences in their effects.
A human myeloma cell line MM.1S was grown using either ^12C (light) or ^13C (heavy) lysine containing culture medium. The “heavy” cells were treated with DMSO as the control, and the “light” cells were treated with a single HDAC inhibitor at 37° C. for 6 hours. The heavy and light cells were lysed, and the lysates were mixed in 1:1 ratio and digested with the protease trypsin. The acetylated lysine containing peptides (due to the action of the HDAC inhibitor) in the digested peptide pool were captured by a non-specific anti-acetylated lysine antibody cocktail (the antibodies identify both light and heavy acetylated peptides), and subjected to mass spectrometry analysis in order to identify thousands of individual peptides.
Thousands of peptides were identified in pairs (^12C and ^13C) due to their known mass differences. The amino acid sequence and quantitative ratio (Light/Heavy) of a given peptide in two differentially treated cell lysates were then determined and annotated with their possible protein (gene) sources.
As stated above, three HDAC inhibitors (Compound A, Compound B, and Tubastatin A) were used. Thus, the SILAC method was performed three times, with a different HDAC inhibitor compared to a control each time. Accordingly, there are three pairs of quantitative data in the table below, i.e., Compound A:DMSO, Compound B:DMSO, and Tubastatin A:DMSO. A cut-off of 1.30 fold of change (increase or decrease) was then used to determine “changed” or “+” in the table, and any peptides with a fold of change less than 1.3 fold were determined to be “unchanged” or “0” in the table. Those peptides that were not identified were marked as “NA” in the table. […]

O=C(CCCCCCNC(=O)c1cnc(N(c2ccccc2)c2ccccc2)nc1)NO [Compound A, 2-(diphenylamino)-N-(7-(hydroxyamino)-7-oxoheptyl)pyrimidine-5-carboxamide]
light to heavy ratio (L/H ratio) of acetylated peptide VVK(ac)QASEGPLK (SEQ ID NO: 597) (Glyceraldehyde-3-phosphate dehydrogenase [263], gene GAPDH, inhibitor:DMSO): 0.45 log 2
light to heavy ratio (L/H ratio) of acetylated peptide AHLQK(ac)LMSDK (SEQ ID NO: 549) (Glycyl-tRNA synthetase [224], gene GARS, inhibitor:DMSO): 0.39 log 2
light to heavy ratio (L/H ratio), log 2 scale, acetylated peptide LLLLGAGESGK(ac)STIVK (SEQ ID NO: 769) (Guanine nucleotide-binding protein G(olf) subunit alpha [55], gene GNAL, drug:DMSO): 0.97
L/H ratio of acetylated peptide AGGK(ac)AGK(ac)DSGK (SEQ ID NO: 15) (H2AFV [5:8], log 2 scale, drug vs DMSO): 1.00
light to heavy ratio (L/H ratio) of acetylated peptide TLAMDVMK(ac)PR (SEQ ID NO: 501) (H(+)/CI(−) exchange transporter 5 [587], gene CLCN5, inhibitor:DMSO): −0.76 log 2
light to heavy ratio (L/H ratio) of acetylated peptide FSPDDK(ac)YSR (SEQ ID NO: 504) (H/ACA ribonucleoprotein complex subunit 3 [40], gene NOP10, inhibitor:DMSO): −0.68 log 2
L/H ratio of acetylated peptide GQQQVFK(ac)GLNDK (SEQ ID NO: 41) (HADHA [406], log 2 scale, drug vs DMSO): 0.00
L/H ratio of acetylated peptide (HGMK(ac)VVLISR (SEQ ID NO: 494), Estradiol 17-beta-dehydrogenase 12 [76], HSD17B12): −1.00 log 2
L/H ratio of acetylated peptide PDPAK(ac)SAPAPK(ac)K (SEQ ID NO: 16) (HIST1H2BO [6:12], log 2 scale, drug vs DMSO): 1.00
light to heavy ratio (L/H ratio) of acetylated peptide SLNLK(ac)HIK (SEQ ID NO: 607) (HLA-B associated transcript 1 [188], gene SNORD84, DDX39B, inhibitor:DMSO): 0.46 log 2
L/H ratio of acetylated peptide K(ac)[…] (SEQ ID NO: 42) (HMGB2 [30], log 2 scale, drug vs DMSO): 0.00
L/H ratio of acetylated peptide RGEEGHDPK(ac)EPEQLR (SEQ ID NO: 43) (HNRNPA3 [29], log 2 scale, drug vs DMSO): 0.00
L/H ratio of acetylated peptide […](ac)WQSLK (SEQ ID NO: 44) (HNRNPM [83], log 2 scale, drug vs DMSO): 0.00
L/H ratio of acetylated peptide AAEVLNK(ac)HSLSGRPLK (SEQ ID NO: 3) (HNRNPM [134], log 2 scale, drug vs DMSO): 0.00
L/H ratio of acetylated peptide VK(ac)VLFVR (SEQ ID NO: 45) (HNRNPR [341], log 2 scale, drug vs DMSO): 0.00
L/H ratio of acetylated peptide […](ac)YSR (SEQ ID NO: 46) (HNRNPU [246], log 2 scale, drug vs DMSO): 0.00
L/H ratio of acetylated peptide TTWVTK(ac)HAAENPGK (SEQ ID NO: 47) (HNRNPU [497], log 2 scale, drug vs DMSO): 0.00
L/H ratio of acetylated peptide NK(ac)EIFLR (SEQ ID NO: 52) (HSP90B1 [97], log 2 scale, drug vs DMSO): 0.00
L/H ratio of acetylated peptide […](ac)IR (SEQ ID NO: 49) (HSP90B1 [114], log 2 scale, drug vs DMSO): 0.00
L/H ratio of acetylated peptide EELVK(ac)NLGTIAK (SEQ ID NO: 48) (HSP90B1 [161], log 2 scale, drug vs DMSO): 0.00
L/H ratio of acetylated peptide ETLQQHK(ac)LLK (SEQ ID NO: 50) (HSP90B1 [455], log 2 scale, drug vs DMSO): 0.00
L/H ratio of acetylated peptide IADDK(ac)YNDTFWK (SEQ ID NO: 51) (HSP90B1 [479], log 2 scale, drug vs DMSO): 0.00
L/H ratio of acetylated peptide […](ac)R (SEQ ID NO: 54) (HSPA5 [96], log 2 scale, drug vs DMSO): 0.00
L/H ratio of acetylated peptide […](ac)R (SEQ ID NO: 53) (HSPA5 [213], log 2 scale, drug vs DMSO): 0.00
L/H ratio of acetylated peptide […](ac)R (SEQ ID NO: 55) (HSPA8 [71], log 2 scale, drug vs DMSO): 0.00
light to heavy ratio (L/H ratio) of acetylated peptide […](ac)R (SEQ ID NO: 267) (Heat shock 70 kDa protein 1A/1B [71], HSPA1B, HSPA1A, drug:DMSO): 0.44 log 2
light to heavy ratio (L/H ratio), log 2 scale, acetylated peptide TEMDWVLK(ac)[…] (SEQ ID NO: 797) (Heterogeneous nuclear ribonucleoprotein F [98], gene HNRNPF, drug:DMSO): 1.00
light to heavy ratio (L/H ratio) of acetylated peptide LLLFK(ac)TFSR (SEQ ID NO: 514) (Heterogeneous nuclear ribonucleoprotein U-like protein 2 [553], gene HNRNPUL2, inhibitor:DMSO): −0.57 log 2
light to heavy ratio (L/H ratio) of acetylated peptide YEK(ac)DIAAYR (SEQ ID NO: 595) (High mobility group protein B2 [157], gene HMGB2, inhibitor:DMSO): 0.45 log 2
light to heavy ratio (L/H ratio), log 2 scale, acetylated peptide AGK(ac)DSGK(ac)AK (SEQ ID NO: 786) (Histone H2A.V [8:12], gene H2AFV, drug:DMSO): 1.00
light to heavy ratio (L/H ratio), log 2 scale, acetylated peptide GSK(ac)K(ac)AITK (SEQ ID NO: 790) (Histone H2B type 1-B [16:17], gene HIST1H2BB, drug:DMSO): 1.00
light to heavy ratio (L/H ratio), log 2 scale, acetylated peptide PEPTK(ac)SAPAPK(ac)K (SEQ ID NO: 791) (Histone H2B type 1-D [6:12], gene HIST1H2BD, drug:DMSO): 1.00
light to heavy ratio (L/H ratio), log 2 scale, acetylated peptide GSK(ac)K(ac)AINK (SEQ ID NO: 792) (Histone H2B type 1-M [16:17], gene HIST1H2BM, drug:DMSO): 1.00
light to heavy ratio (L/H ratio), log 2 scale, acetylated peptide K(ac)AINK(ac)AQK (SEQ ID NO: 793) (Histone H2B type 1-M [17:21], gene HIST1H2BM, drug:DMSO): 1.00
light to heavy ratio (L/H ratio) of acetylated peptide PEPAK(ac)SAPAPK(ac)K (SEQ ID NO: 309) (Histone H2B type 2-E [6:12], HIST2H2BE, drug:DMSO): 1.00 log 2
